According to PMC11434080, “Acetylation of Oleanolic Acid Dimers as a Method of Synthesis of Powerful Cytotoxic Agents” (Molecules, 2024):
pIC50: −log10 of the molar value. “Also recorded” adds a separate entry of the source.

Experiments:
[1] = parameters: method as in PMID 39000101, PMID 39125028; conditions: previously analyzed derivatives; cited from earlier work
SKBR-3 = experiment: MTT assay, SKBR-3; type: cell-based, human; conditions: for pIC50: SK-BR-3, MTT assay, SKBR-3 human breast adenocarcinoma, value (SD); for SKBR-3 SI: Selectivity Index = IC50 HDF / IC50 SKBR-3
Description: (§1) The cytotoxic activity of oleanolic acid (mother compound, 1, Figure 2) and its 14 derivatives (3a–3n, Figure 2) was tested in vitro using the standard MTT method based on viability assay, e.g., [44] against carcinoma cell lines: SKBR-3, SKOV-3, PC-3, U-87, and one normal cell line: HDF.
(§2) Human cancer cells: SKBR-3 and SKOV-3 were cultured in McCoy’s Modified Medium; PC-3 was cultured in an F-12K medium; U-87 was cultured in EMEM medium; HDF was cultured in Fibroblast Basal Medium. Each medium was supplemented with 10% fetal bovine serum, 1% L- glutamine, and 1% penicillin/streptomycin solution. The cell lines were kept in an incubator at 37 °C. All the cell lines and mediums were obtained from the American Type Culture Collection (ATCC) supplied by LGC-Standards (Lomianki, Poland).
(§3) The MTT assay was conducted as described earlier, e.g., [44]. In short, this method is based on the reaction between mitochondria enzymes (dehydrogenases) of tested cell lines and 3-(4,5-dimethylthiazol-2-yl)-2,5-diphenyltetrazolium bromide (MTT). The final product of this reaction gives violet formazan crystals. The number of live cells is proportional to the amount of formazan and is represented by the violet dye reagent. The details of the experiments are given in [44].

SKOV-3 = experiment: MTT assay, SKOV-3; type: cell-based, human; conditions: for pIC50: SK-OV-3, MTT assay, SKOV-3 human ovarian cystadenocarcinoma, value (SD); for SKOV-3 SI: Selectivity Index = IC50 HDF / IC50 SKOV-3
Description: as §1, §2, §3

PC-3 = experiment: MTT assay, PC-3; type: cell-based, human; conditions: for pIC50: MTT assay, PC-3 human prostate carcinoma, value (SD), read-out: B IC50 (SD); for B SI: Selectivity Index = IC50 HDF / IC50 of PC-3
Description: as §1, §2, §3

U-87 = experiment: MTT assay, U-87; type: cell-based, human; conditions: for U-87 SI: Selectivity Index = IC50 HDF / IC50 U-87; for pIC50: U-87 MG, MTT assay, U-87 human glioblastoma, value (SD)
Description: as §1, §2, §3

HDF = experiment: MTT assay, HDF normal cell line; type: cell-based; conditions: Homo sapiens, value (SD)
Description: as §1, §2, §3

[2] = Solubility in ethanol observed at crystallization; type: physicochemical; conditions: room temperature
[3] = tested on: SKBR-3, SKOV-3, PC-3, and U-87 cancer cell lines; experiment: MTT assay, four cancer cell lines taken together; type: cell-based, human; conditions: MTT, across SKBR-3, SKOV-3, PC-3, U-87
Description: as §1, §2, §3

CUPRAC antioxidant assay = conditions: Figure 3
Excerpt: (§4) The results of the antioxidant activity of oleanolic acid (1) and Acetylated Oleanolic Acid Dimers (AcOADs) 3a–3n evaluated with CUPRAC and DPPH assays are given in Figure 3. The results are presented as % inhibition of the copper(II) ions and Trolox equivalent (blue bars) calculated from the standard curve, presented in the Supplementary Materials (Supplementary Materials S02, Figure S1) and as % inhibition of the DPPH radical and Trolox equivalent (pink bars), calculated from the standard curve presented in the Supplementary Materials (Supplementary Materials S02, Figure S2).
(§5) The CUPRAC reagent (7.5 mM ethanolic 96% neocuproine solution, 10 mM CuCl2 × H2O solution, and an ammonium acetate buffer of pH 7.0) and DPPH reagent (2,2-diphenyl-1-picrylhydrazyl 0.2 mM solution) were applied.
(§6) The DPPH assay relies on the ability of an antioxidant to donate a hydrogen atom or an electron to the stable DPPH radical, resulting in its reduction and subsequent color change. In contrast, the CUPRAC method measures the reducing power of a sample by quantifying its ability to convert the Cu-neocuproine reagent complex into the Cu(I) form. The results are presented as % inhibition of the copper(II) ions and Trolox equivalent (blue bars) calculated from the standard curve (Supplementary Materails S02, Figure S1) and as % inhibition of the DPPH radical and Trolox equivalent (pink bars), calculated from the standard curve (Supplementary Materials S02, Figure S2). The details of the experiments are given in [46].

DPPH antioxidant assay = conditions: Figure 3
Excerpt: as §4, §5, §6

[4] = parameters: method as in PMID 39000101, PMID 39125028; conditions: previously analyzed derivatives; cited from earlier work; remark: listed apart in the source

CC1(C)CCC2(C(=O)OCCCCCCCOC(=O)C34CCC(C)(C)CC3C3=CCC5C6(C)CCC(O)C(C)(C)C6CCC5(C)C3(C)CC4)CCC3(C)C(=CCC4C5(C)CCC(O)C(C)(C)C5CCC43C)C2C1 (stereo not shown) [Compound 2i]
CUPRAC activity (in words), previous analysis [1]: high CUPRAC values

CC(=O)OC1CCC2(C)C(CCC3(C)C2CC=C2C4CC(C)(C)CCC4(C(=O)OCCCCCCCCCCCCOC(=O)C45CCC(C)(C)CC4C4=CCC6C7(C)CCC(OC(C)=O)C(C)(C)C7CCC6(C)C4(C)CC5)CCC23C)C1(C)C (stereo not shown) [Compound 3n]
pIC50 (SKBR-3): 5.01
SKBR-3 SI (SKBR-3): 1.52
pIC50 (SKOV-3): 4.99
SKOV-3 SI (SKOV-3): 1.43
pIC50 (PC-3): 5.02
B SI (PC-3): 1.55
U-87 SI (U-87): 1.45
pIC50 (U-87): 4.99
pIC50 (HDF): 4.83
solubility in ethanol [2]: well soluble

CC(=O)OC1CCC2(C)C(CCC3(C)C2CC=C2C4CC(C)(C)CCC4(C(=O)OCCCCCCCCCCCOC(=O)C45CCC(C)(C)CC4C4=CCC6C7(C)CCC(OC(C)=O)C(C)(C)C7CCC6(C)C4(C)CC5)CCC23C)C1(C)C (stereo not shown) [Compound 3m]
pIC50 (SKBR-3): 5.75
SKBR-3 SI (SKBR-3): 2.59
pIC50 (SKOV-3): 5.64
SKOV-3 SI (SKOV-3): 2.00
pIC50 (PC-3): 5.75
B SI (PC-3): 2.62
U-87 SI (U-87): 2.52
pIC50 (U-87): 5.74
pIC50 (HDF): 5.34
pIC50 ([3]; Homo sapiens): ~5.70
pIC50 [3]: ≥ 5.70
CUPRAC activity (in words) (CUPRAC antioxidant assay): highest CUPRAC activity
solubility in ethanol [2]: well soluble

CC(=O)OC1CCC2(C)C(CCC3(C)C2CC=C2C4CC(C)(C)CCC4(C(=O)OCOC(=O)C45CCC(C)(C)CC4C4=CCC6C7(C)CCC(OC(C)=O)C(C)(C)C7CCC6(C)C4(C)CC5)CCC23C)C1(C)C (stereo not shown) [Compound 3a]
pIC50 (SKBR-3): 5.69
pIC50 (PC-3): 5.65
pIC50 (U-87): 5.69
pIC50 (HDF): 5.18
pIC50 ([3]; Homo sapiens): ~5.70
CUPRAC activity (in words) (CUPRAC antioxidant assay): moderate CUPRAC activity
DPPH activity (in words) (DPPH antioxidant assay): higher antioxidant activity than OA; also recorded: high DPPH activity
melting point: 286 to 288 °C

CC(=O)OC1CCC2(C)C(CCC3(C)C2CC=C2C4CC(C)(C)CCC4(C(=O)OCCOC(=O)C45CCC(C)(C)CC4C4=CCC6C7(C)CCC(OC(C)=O)C(C)(C)C7CCC6(C)C4(C)CC5)CCC23C)C1(C)C (stereo not shown) [Compound 3b]
pIC50 (SKBR-3): 5.53
SKBR-3 SI (SKBR-3): 2.37
pIC50 (SKOV-3): 5.52
SKOV-3 SI (SKOV-3): 2.32
pIC50 (PC-3): 5.51
B SI (PC-3): 2.26
U-87 SI (U-87): 2.27
pIC50 (U-87): 5.51
pIC50 (HDF): 5.15
pIC50 ([3]; Homo sapiens): 5.35 to 5.60
CUPRAC activity (in words) (CUPRAC antioxidant assay): highest CUPRAC activity; also recorded: high CUPRAC activity
DPPH activity (in words) (DPPH antioxidant assay): low DPPH activity

CC1(C)CCC2(C(=O)OCCCCCCCCOC(=O)C34CCC(C)(C)CC3C3=CCC5C6(C)CCC(O)C(C)(C)C6CCC5(C)C3(C)CC4)CCC3(C)C(=CCC4C5(C)CCC(O)C(C)(C)C5CCC43C)C2C1 (stereo not shown) [Compound 2j]
CUPRAC activity (in words), previous analysis [1]: high CUPRAC values

CC1(C)CCC2(C(=O)OCCCCCOC(=O)C34CCC(C)(C)CC3C3=CCC5C6(C)CCC(O)C(C)(C)C6CCC5(C)C3(C)CC4)CCC3(C)C(=CCC4C5(C)CCC(O)C(C)(C)C5CCC43C)C2C1 (stereo not shown) [Compound 2g]
CUPRAC activity (in words), previous analysis [1]: high CUPRAC values

CC1(C)CCC2(C(=O)OCCCCCCCCCCCOC(=O)C34CCC(C)(C)CC3C3=CCC5C6(C)CCC(O)C(C)(C)C6CCC5(C)C3(C)CC4)CCC3(C)C(=CCC4C5(C)CCC(O)C(C)(C)C5CCC43C)C2C1 (stereo not shown) [Compound 2m]
CUPRAC activity (in words), previous analysis [1]: high CUPRAC values

CC1(C)CCC2(C(=O)OCOC(=O)C34CCC(C)(C)CC3C3=CCC5C6(C)CCC(O)C(C)(C)C6CCC5(C)C3(C)CC4)CCC3(C)C(=CCC4C5(C)CCC(O)C(C)(C)C5CCC43C)C2C1 (stereo not shown) [Compound 2a]
CUPRAC activity (in words), previous analysis [1]: lower CUPRAC activity
DPPH activity (in words), previous analysis [4]: high DPPH activity
